Reference: publication PMC10154249, “Unique progerin C-terminal peptide ameliorates Hutchinson–Gilford progeria syndrome phenotype by rescuing BUBR1” (Nature Aging, 2023)

Tests used:
Format in all cases: cell-based, human
[1] = system: p53, IL-6 and p21 in HGADFN003 cells; test: Western blot of p53, IL-6 and p21 in HGADFN003 cells
Protocol: Western blot was performed as previously described. Cells were lysed in 1× Laemmli sample buffer after washing twice in cold PBS without calcium and magnesium. Protein concentrations were determined using the bicinchoninic acid (BCA) protein assay. Protein lysates were subjected to SDS–PAGE, transferred to 0.45-μm pore size hydrophobic PVDF transfer membrane (Merck Millipore), detected with the appropriate primary antibodies coupled with horseradish peroxidase-conjugated corresponding secondary antibodies, and visualized using enhanced chemiluminescence ECL reagent (GE Healthcare). The Tanon 5500 high-definition low-illumination CCD system (Tanon FLI Capture v.1.02) was used to capture chemiluminescent signals.

[2] = system: IMR90-progerin cells; test: γH2AX foci in IMR90-progerin cells; settings: for γH2AX foci per cell, n>10 / γH2AX foci per cell, n≤10: IMR90-Flag-progerin+UPCP
Protocol: Immunofluorescence was performed as described previously. Cells were plated on cover slips in 12-well plates, left overnight before the treatment. Cells were fixed in 1% formaldehyde in culture medium for 10 min at 37 °C and permeabilized with 0.2% Triton X-100 in PBS for 10 min at room temperature. Cells were washed twice in PBS and blocked for 1 h with 5% BSA in PBS and then incubated with primary antibodies at 4 °C overnight, washed three times in PBS and incubated with secondary antibodies for 1 h at room temperature. Cell nuclei were counterstained with a 500 nM concentration of 4,6-diamidino-2-phenylindole (DAPI) (Sigma). Images were acquired by a fluorescence microscope (OLYMPUS FV-1000, Carl Zeiss LSM880 or Leica DMi8) and analyzed with software NIS-Elements AR v.5.0.1 (Nikon), FLUOVIEW v.4.2b (OLYMPUS), ZEN v.2.3 SP1 (Carl Zeiss) and Leica Application Suite X v.3.6.0.24 (Leica). Cells were quantified by investigators who were blinded to the identity of the analyzed cell.

[3] = system: BUBR1, HMGA1, KDM1A, ZNF143 and FOXM1 mRNA; test: RT-PCR of BUBR1 and its transcription factors in HGADFN003 cells; settings: for BUBR1 relative (to β-actin) mRNA level (2-ΔΔCt) / FOXM1 relative (to β-actin) mRNA level (2-ΔΔCt) / HMGA1 relative (to β-actin) mRNA level (2-ΔΔCt) / KDM1A relative (to β-actin) mRNA level (2-ΔΔCt) / ZNF143 relative (to β-actin) mRNA level (2-ΔΔCt): Fig. 4a, HGADFN003, vs Mock = 1; for BUBR1 relative (to β-actin) mRNA level (2-ΔΔCt): P=0.0003; for FOXM1 relative (to β-actin) mRNA level (2-ΔΔCt): P=0.2399; for HMGA1 relative (to β-actin) mRNA level (2-ΔΔCt): P=0.9214; for KDM1A relative (to β-actin) mRNA level (2-ΔΔCt): P=0.683; for ZNF143 relative (to β-actin) mRNA level (2-ΔΔCt): P=0.9897
Protocol: RNA preparation was performed as described. Total RNA was extracted using Trizol reagent (TaKaRa) following the manufacturer’s instructions. cDNA was generated with M-MLV reverse transcriptase (Promega, catalog no. M170B). Reverse transcription with PCR (RT-PCR) was performed with SYBR Green Real-Time PCR Master Mix (TaKaRa). RT-PCR was carried out on a QuantStudio 3 Real-Time-PCR Instrument (ABI). Data were analyzed and further processed in QuantStuido Design and Analysis Software and GraphPad Prism v.7. Fold change in gene expression over control samples was calculated using the 2^–ΔΔCt method, where β-actin Ct values were used as an internal control. The primer sequences for PCR, synthesized by Comate Bioscience, were as follows:
β-actin_fwd (5′-[…]-3′) and β-actin_rev (5′-[…]-3′); AURKB_fwd (5′-[…]-3′) and AURKB_rev (5′-[…]-3′); BUB1_ fwd (5′-[…]-3′) and BUB1_rev (5′-[…]-3′); BUB1B_fwd (5′-[…]-3′) and BUB1B_ rev (5′-[…]-3′); CCNA2_fwd (5′-[…]-3′) and CCNA2_ rev (5′-[…]-3′); Mad2l1_fwd (5′-[…]-3′) and Mad2l1_ rev (5′-[…]-3′); TTK1_fwd (5′-[…]-3′) and TTK1_ rev (5′-[…]-3′); PLK1_fwd (5′-[…]-3′) and PLK1_ rev (5′-[…]-3′); PTBP1_fwd (5′-[…]-3′) and PTBP1_ rev (5′-[…]-3′); HMGA1_fwd (5′-[…]-3′) and HMGA1_ rev (5′-[…]-3′); KDM1A1_fwd (5′-[…]-3′) and KDM1A1_ rev (5′-[…]-3′); ZNF143_fwd (5′-[…]-3′) and ZNF143_ rev (5′-[…]-3′); FOXM1_fwd (5′-[…]-3′) and FOXM1_ rev (5′-[…]-3′).

H-YGRKKRRQRRRYNLRSRTVLCGTCGQPADKASASGSGAQSPQNCSIM-OH (cysteines drawn unpaired) [UPCP, unique progerin C-terminal peptide]
level of p53, IL-6 and p21 [1]: decreased level of p53, IL-6 and p21
γH2AX foci per cell, n>10 ([2]; replicate 1): 75%
γH2AX foci per cell, n≤10 ([2]; replicate 1): 25%
γH2AX foci per cell, n>10 ([2]; replicate 2): 69%
γH2AX foci per cell, n≤10 ([2]; replicate 2): 31%
γH2AX foci per cell, n>10 ([2]; replicate 3): 61%
γH2AX foci per cell, n≤10 ([2]; replicate 3): 39%
γH2AX-53BP1 foci ([2]; IMR90-progerin cells): lower level of γH2AX-53BP1 foci
BUBR1 relative (to β-actin) mRNA level (2-ΔΔCt) ([3]; replicate 1): 5.569
BUBR1 relative (to β-actin) mRNA level (2-ΔΔCt) ([3]; replicate 2): 6.327
BUBR1 relative (to β-actin) mRNA level (2-ΔΔCt) ([3]; replicate 3): 4.947
FOXM1 relative (to β-actin) mRNA level (2-ΔΔCt) ([3]; replicate 1): 1.5201
FOXM1 relative (to β-actin) mRNA level (2-ΔΔCt) ([3]; replicate 2): 2.139
FOXM1 relative (to β-actin) mRNA level (2-ΔΔCt) ([3]; replicate 3): 0.8641
HMGA1 relative (to β-actin) mRNA level (2-ΔΔCt) ([3]; replicate 1): 0.9058
HMGA1 relative (to β-actin) mRNA level (2-ΔΔCt) ([3]; replicate 2): 1.8337
HMGA1 relative (to β-actin) mRNA level (2-ΔΔCt) ([3]; replicate 3): 0.3934
KDM1A relative (to β-actin) mRNA level (2-ΔΔCt) ([3]; replicate 1): 0.9262
KDM1A relative (to β-actin) mRNA level (2-ΔΔCt) ([3]; replicate 2): 0.9644
KDM1A relative (to β-actin) mRNA level (2-ΔΔCt) ([3]; replicate 3): 1.24
ZNF143 relative (to β-actin) mRNA level (2-ΔΔCt) ([3]; replicate 1): 0.3607
ZNF143 relative (to β-actin) mRNA level (2-ΔΔCt) ([3]; replicate 2): 1.774
ZNF143 relative (to β-actin) mRNA level (2-ΔΔCt) ([3]; replicate 3): 0.8819
BUBR1 mRNA expression ([3]; RT-PCR, HGADFN003 cells): could upregulate expression of BUBR1
expression of transcription factors regulating BUBR1 ([3]; RT-PCR, HGADFN003 cells): had little effect on their expression
